{
  "source": "patent US5888993A",
  "about": "“Vanadium compounds in the treatment of elevated blood sugar levels” (The University of British Columbia, priority 1997, dated 1999)",
  "key": {"[1]": {"tested_on": "non diabetic rats", "experiment": "Previous laboratory studies of BMOV in non diabetic rats", "format": "in vivo, rat", "details": "0.75 mg/ml", "protocol": "(§1) 11 SHR and 12 WKY rats (all male) were procured at 4 weeks of age from Charles River, Canada. The animals were divided into four experimental groups: SHR (untreated n=5), SHRO (BMOV treated n=6), WKY (untreated n=8) and WKYO (BMOV treated n=4). Chronic BMOV treatment was commenced on the SHRO and WKYO groups at 5 weeks of age. The rats were given BMOV (0.75 mg/ml) ad libitum in the drinking water."}, "[2]": {"tested_on": "WKY rats", "experiment": "Blood pressure study with BMOV, Wistar Kyoto rats", "format": "in vivo, rat", "details": "WKYO, 0.75 mg/ml in drinking water", "protocol": "as §1\nOnce at week 5 and then starting at week 8, weekly measurements of blood pressure were done on all groups for the next 3 weeks. Blood samples were also collected via the tail vein during the weeks mentioned above. These were centrifuged and plasma was collected for subsequent glucose and insulin analyses. Chronic blood pressure measurements were done on conscious rats, using the tail cuff method without external preheating. Initial experiments to validate the tail cuff method by comparing the readings obtained with it to those obtained by direct arterial cannulation were conducted."}, "[3]": {"experiment": "log p (partition coefficient)", "format": "physicochemical"}, "[4]": {"tested_on": "diabetic rats", "experiment": "Comparison of BMOV and vanadyl kojate, acute time course of plasma glucose, rats made diabetic with STZ", "format": "in vivo, rat", "parameters": "plasma glucose level: unit not given here", "protocol": "Using BMOV and Vanadyl Kojate as prepared in Examples 1 and 2 above, the relative efficacy of the two compounds was assessed using rats made diabetic with STZ. Again the animals were divided into responder and non-responder groups. For a 0.063 mmol V/kg ip injection, BMOV gave a 50:50 split between responder and non-responder groups whereas for vanadyl kojate the ratio was 60:40. On oral gavage of 0.55 mmol V/kg the responder:non-responder ratios were 50:50 and 57:43 respectively (n=10). However over a 12 day test period, there was a 100% response in terms of blood glucose reduction for diabetic rats receiving vanadyl kojate orally."}, "[5]": {"tested_on": "diabetic rats", "experiment": "BMOV in drinking water, STZ diabetic rats", "format": "in vivo, rat"}},
  "data": [
    {"molecule": "Cc1occc(=O)c1[O-].Cc1occc(=O)c1[O-].[O]=[V+2]", "note": "[BMOV, Bis(maltolato)oxovanadium(IV)]", "values": [
      {"measurement": "plasma insulin levels", "setting": "[1]", "result": "sufficient to lower plasma insulin levels"},
      {"measurement": "systolic blood pressure, normotensive controls", "setting": "[2]", "result": "without having any effect"},
      {"measurement": "log p", "setting": "[3]", "result": 0.12},
      {"measurement": "plasma glucose level", "setting": "[4]; i.p. 0.063 mmol/kg, nonresponders (DTN), 0 h", "result": 19.42},
      {"measurement": "plasma glucose level", "setting": "[4]; i.p. 0.063 mmol/kg, nonresponders (DTN), 1 h", "result": 18.82},
      {"measurement": "plasma glucose level", "setting": "[4]; i.p. 0.063 mmol/kg, nonresponders (DTN), 2 h", "result": 18.51},
      {"measurement": "plasma glucose level", "setting": "[4]; i.p. 0.063 mmol/kg, nonresponders (DTN), 4 h", "result": 17.94},
      {"measurement": "plasma glucose level", "setting": "[4]; i.p. 0.063 mmol/kg, nonresponders (DTN), 6 h", "result": 18.08},
      {"measurement": "plasma glucose level", "setting": "[4]; i.p. 0.063 mmol/kg, nonresponders (DTN), 8 h", "result": 17.77},
      {"measurement": "plasma glucose level", "setting": "[4]; i.p. 0.063 mmol/kg, nonresponders (DTN), 12 h", "result": 19.07},
      {"measurement": "plasma glucose level", "setting": "[4]; i.p. 0.063 mmol/kg, nonresponders (DTN), 24 h", "result": 19.01},
      {"measurement": "plasma glucose level", "setting": "[4]; i.p. 0.063 mmol/kg, responders (DTR), 0 h", "result": 17.51},
      {"measurement": "plasma glucose level", "setting": "[4]; i.p. 0.063 mmol/kg, responders (DTR), 1 h", "result": 14.77},
      {"measurement": "plasma glucose level", "setting": "[4]; i.p. 0.063 mmol/kg, responders (DTR), 2 h", "result": 12.65},
      {"measurement": "plasma glucose level", "setting": "[4]; i.p. 0.063 mmol/kg, responders (DTR), 4 h", "result": 10.6},
      {"measurement": "plasma glucose level", "setting": "[4]; i.p. 0.063 mmol/kg, responders (DTR), 6 h", "result": 10.28},
      {"measurement": "plasma glucose level", "setting": "[4]; i.p. 0.063 mmol/kg, responders (DTR), 8 h", "result": 9.08},
      {"measurement": "plasma glucose level", "setting": "[4]; i.p. 0.063 mmol/kg, responders (DTR), 12 h", "result": 9.38},
      {"measurement": "plasma glucose level", "setting": "[4]; i.p. 0.063 mmol/kg, responders (DTR), 24 h", "result": 7.15},
      {"measurement": "plasma glucose level", "setting": "[4]; oral gavage 0.55 mmol/kg, nonresponders (DTN), 0 h", "result": 19.31},
      {"measurement": "plasma glucose level", "setting": "[4]; oral gavage 0.55 mmol/kg, nonresponders (DTN), 1 h", "result": 18.05},
      {"measurement": "plasma glucose level", "setting": "[4]; oral gavage 0.55 mmol/kg, nonresponders (DTN), 2 h", "result": 17.57},
      {"measurement": "plasma glucose level", "setting": "[4]; oral gavage 0.55 mmol/kg, nonresponders (DTN), 4 h", "result": 16.92},
      {"measurement": "plasma glucose level", "setting": "[4]; oral gavage 0.55 mmol/kg, nonresponders (DTN), 6 h", "result": 16.43},
      {"measurement": "plasma glucose level", "setting": "[4]; oral gavage 0.55 mmol/kg, nonresponders (DTN), 8 h", "result": 15.02},
      {"measurement": "plasma glucose level", "setting": "[4]; oral gavage 0.55 mmol/kg, nonresponders (DTN), 12 h", "result": 17.17},
      {"measurement": "plasma glucose level", "setting": "[4]; oral gavage 0.55 mmol/kg, nonresponders (DTN), 24 h", "result": 18.07},
      {"measurement": "plasma glucose level", "setting": "[4]; oral gavage 0.55 mmol/kg, responders (DTR), 0 h", "result": 18.09},
      {"measurement": "plasma glucose level", "setting": "[4]; oral gavage 0.55 mmol/kg, responders (DTR), 1 h", "result": 14.55},
      {"measurement": "plasma glucose level", "setting": "[4]; oral gavage 0.55 mmol/kg, responders (DTR), 2 h", "result": 13.13},
      {"measurement": "plasma glucose level", "setting": "[4]; oral gavage 0.55 mmol/kg, responders (DTR), 4 h", "result": 11.68},
      {"measurement": "plasma glucose level", "setting": "[4]; oral gavage 0.55 mmol/kg, responders (DTR), 6 h", "result": 9.47},
      {"measurement": "plasma glucose level", "setting": "[4]; oral gavage 0.55 mmol/kg, responders (DTR), 8 h", "result": 9.27},
      {"measurement": "plasma glucose level", "setting": "[4]; oral gavage 0.55 mmol/kg, responders (DTR), 12 h", "result": 7.01},
      {"measurement": "plasma glucose level", "setting": "[4]; oral gavage 0.55 mmol/kg, responders (DTR), 24 h", "result": 6.31},
      {"measurement": "fluid intake", "setting": "[5]; 0.46-0.92 mmol/kg", "result": "decreased to normal"},
      {"measurement": "blood glucose reduction", "setting": "[5]; 0.46-0.92 mmol/kg (150-300 mg/kg), four diabetic rats", "result": "reduced blood glucose in four diabetic rats into the normal range"}
    ]}
  ]
}
